The record followed here is BindingDB's records for doi:10.1021/acs.jmedchem.5b00801 (Duquesne University, 2015).

Assay [1] in a line: Binding affinity to human FRbeta expressed in Chinese hamster D4 cells assessed as cell growth inhibition after 96 hrs by CellTiter-Blue assay.
Assay [2] in a line: Binding affinity to human RFC expressed in Chinese hamster PC43-10 cells assessed as cell growth inhibition after 96 hrs by CellTiter-Blue assay.
Assay [3] can be described thus: Binding affinity to human FRbeta expressed in Chinese hamster D4 cells assessed as cell growth inhibition after 96 hrs by CellTiter-Blue assay in presence of 200 nM folic acid.
A short description of assay [4]: Binding affinity to human PCFT expressed in Chinese hamster R2/PCFT4 cells assessed as cell growth inhibition after 96 hrs by CellTiter-Blue assay.
A short description of assay [5]: Binding affinity to human FRalpha expressed in Chinese hamster RT16 cells assessed as cell growth inhibition after 96 hrs by CellTiter-Blue assay.
A short description of assay [6]: Binding affinity to human FRalpha expressed in Chinese hamster RT16 cells assessed as cell growth inhibition after 96 hrs by CellTiter-Blue assay in presence of 200 nM folic acid.

Where only a bound is given, the exact number is not on record here.

As to `Nc1nc(N)c2c(CCCc3cc(C(=O)N[C@@H](CCC(=O)O)C(=O)O)cs3)coc2n1`, the concentration for half-maximal inhibition (IC50) is 0.054 µM in assay [1], greater than 1 µM in assay [2], greater than 1 µM in assay [3] and greater than 1 µM in assay [4].
In the case of `Nc1nc2[nH]c(CCCc3cc(C(=O)N[C@@H](CCC(=O)O)C(=O)O)cs3)cc2c(=O)[nH]1`, the 50% inhibitory concentration (IC50) stood at 0.0001 µM in assay [1]; 0.189 µM in assay [2]; 0.00061 µM in assay [5]; 0.654 µM in assay [3]; 0.0065 µM in assay [4]; 0.506 µM in assay [6].
